The record followed here is patent US8895504B2, “Amylin derivatives” (priority 2008, dated 2014).

Each structure is given as a SMILES string. *1 amine or outer side, *2 acyl side, *3 side chain or, on linkers, in order; H or OH if unused. Where a SMILES comes first, the peptide text is derived from it. Bridges are numbered along the chain shown (N, C = ends). Side-chain parts run from the residue outwards. The star is where a group is joined. C20 diacid = O=C(O)CCCCCCCCCCCCCCCCCCC(=O)*; γGlu = O=C(O)[C@H](CCC(=O)[*:2])N[*:1]; AEEA = NCCOCCOCC(=O)O

For one series, the system named is food intake. The experiment in a line: Pharmacological Assay (I) - efficacy testing on appetite, ad libitum fed rat model. It is filed as in vivo, Sprague Dawley (SD) rats. As to conditions: 30 nmol/kg vs vehicle, ad libitum fed rats, n=5-7, 0-48 hours. The text has this:
Assays Pharmacological Assay (I)—Experimental Protocol for Efficacy Testing on Appetite with an Amylin Derivative, Using an Ad Libitum Fed Rat Model. Sprague Dawley (SD) rats from Taconic Europe, Denmark are used for the experiments. The rats have a body weight 200-250 g at the start of experiment. The rats arrive at least 10-14 days before start of experiment to allow acclimatization to experimental settings. During this period the animals are handled at least 2 times. After arrival rats are housed individually for one week in a reversed light/dark phase (meaning that lights are off during daytime and on during nighttime) for two weeks. Since rats are normally active and eat their major part of their daily food intake during the dark period, rats are dosed in the morning right before lights are turned off. This set-up results in the lowest data variation and highest test sensitivity. The experiment is conducted in the rats' home cages and rats have free access to food and water throughout the acclimatization period and the experiment period. Each dose of derivative is tested in a group of 5-8 rats. A vehicle group of 6-8 rats is included in each set of testing. Rats are dosed once according to body weight with a 0.01-3 mg/kg solution administered intraperitoneally (ip), orally (po) or subcutaneously (sc). The time of dosing is recorded for each group. After dosing, the rats are returned to their home cages, where they then have access to food and water. The food consumption is recorded individually continuously by on-line registration or manually every hour for 7 hours, and then after 24 h and sometimes 48 h. At the end of the experimental session, the animals are euthanized. The individual data are recorded in Microsoft excel sheets. Outliers are excluded after applying the Grubbs statistical evaluation test for outliers, and the result is presented graphically using the GraphPad Prism program.

The target of series [1] is T1, Amylin 3(a) receptor (human calcitonin receptor (CTa) and RAMP-3) (Homo sapiens, UniProt O60896+P30988).
T1 construct: expressed in transfected cells; host or cells: BHK570 cells, stably transfected with a CRE-luciferase reporter
Briefly: Luciferase assay (III), BHK Amylin 3(a)//CRE-luc cells. It is filed as cell-based. The note with it: BHK cells with Amylin 3(a) receptor and CRE luciferase reporter, 4 hours incubation; read-out: Potency Luciferase. The method in brief:
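BHK570 cells stably expressing CTa, RAMP-3 and a CRE-luciferase reporter, seeded at about 20,000 cells/well and grown overnight. Cells were exposed to standard or sample for 4 h at 37° C in phenol red-free DMEM with 10% FBS and 10 mM Hepes, pH 7,4. Luminescence was read after 30 min LucLite at room temperature.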
(In general: In a reporter assay the amount or activity of a reporter protein is the signal.)

Series [2] can be described thus: Assay (V) PK - determination of T½ in mini-pig. It is filed as in vivo. As to conditions: minipig, sc; terminal plasma half-life, subcutaneous, approx 2 nmol/kg, male Göttingen mini-pigs. The protocol: Assay (V) PK—Determination OF T½ in Mini-Pig
T½ is the terminal half-life=ln 2/λz of a compound in plasma. λz is the first order rate constant associated with the terminal (log-linear) portion of the plasma concentration-time curve and is estimated by linear regression of time vs. log concentration.
T½ values of the amylin analogues of the invention is determined by pharmacokinetic studies in male Göttingen mini-pigs from Ellegaard Göttingen Minipigs ApS and the principles of laboratory animal care are followed.
An acclimatization period of approximately 6-10 days was allowed before the animals entered the study. At start of the acclimatization period the mini-pigs were about 5 to 12 months old and in the weight range of 7-35 kg. The mini-pigs had two central venous catheters inserted which were used for blood sampling.
The studies were conducted in an animal room which was illuminated to give a cycle of approx 12 hours light and 12 hours darkness. The animals were housed individually.
The animals had free access to domestic quality drinking water during the study, but were typically fasted from overnight before dosing until approx 6-12 hours after dosing. The animals were weighed on arrival and on the days of dosing.
In the present studies the test substances were administered subcutaneously in approx 2 nmol/kg dose. The animals received a single subcutaneous injection. The subcutaneous injection was given on the right side of the neck, approximately 5-7 cm from the ear and 7-9 cm from the middle of the neck. The injections were given with a stopper on the needle, allowing approx 0.5 cm of the needle to be introduced. Each test substance was given to typically three but in some cases two or four animals.
A full plasma concentration-time profile, employing 12-16 sampling points, was obtained from each animal. In example blood samples were collected according to the following schedule:
After subcutaneous administration:
Predose (0), 0.5, 1, 2, 4, 6, 8, 12, 24, 48, 72, 96, 120, 168 and 240 hours after injection. In some cases also additional blood samples up to 288 hours post injection were taken.
At each sampling time, 0.5 to 2 ml of blood was drawn from each animal. The blood samples were taken via the central venous catheter.
The blood samples were collected into EDTA test tubes (i.e. Sarstedt Micro tube 1.3 mL K3E). Blood samples were kept on ice for max 20 min. before centrifugation. Plasma was separated using centrifugation (i.e. at 4° C., 10 min., 1500 G) and was immediately transferred to Micronic tubes. Approximately 200 μl plasma was transferred to each Micronic tube. The plasma was stored at −20° C. until assayed. The plasma samples were assayed for the content of amylin using an ELISA assay.
The plasma concentration-time profiles were analysed by a non-compartmental pharmacokinetic analysis (NCA) using WinNonlin Professional 5.0 (Pharsight Inc., Mountain View, Calif., USA). NCA was performed using the individual plasma concentration-time profiles from each animal. T½ is the terminal half-life=ln 2/λz and was determined from λz, the first order rate constant associated with the terminal (log-linear) portion of the curve, estimated by linear regression of time vs. log concentration.
ELISA Plasma Assay for Amylin Quantification
The human amylin ELISA is a monoclonal antibody-based sandwich immunoassay for determining amylin levels in human plasma. The capture antibody recognizes human amylin, amylin acid (deamidated amylin), a 1-20 fragment of amylin, but not reduced amylin.
The detection antibody binds to reduced or unreduced human amylin but not amylin acid and is complexed with streptavidin-alkaline phosphatase. The substrate, 4-methylumbelliferyl phosphate, is applied to the completed sandwich and the fluorescent signal, monitored at 355 nm/460 nm, is proportional to the amount of amylin present in the sample.

T1 sequence (O60896 24-148): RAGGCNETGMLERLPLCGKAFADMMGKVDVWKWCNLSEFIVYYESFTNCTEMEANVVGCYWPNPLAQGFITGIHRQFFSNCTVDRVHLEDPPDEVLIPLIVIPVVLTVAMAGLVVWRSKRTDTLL
T1 sequence (P30988 25-474): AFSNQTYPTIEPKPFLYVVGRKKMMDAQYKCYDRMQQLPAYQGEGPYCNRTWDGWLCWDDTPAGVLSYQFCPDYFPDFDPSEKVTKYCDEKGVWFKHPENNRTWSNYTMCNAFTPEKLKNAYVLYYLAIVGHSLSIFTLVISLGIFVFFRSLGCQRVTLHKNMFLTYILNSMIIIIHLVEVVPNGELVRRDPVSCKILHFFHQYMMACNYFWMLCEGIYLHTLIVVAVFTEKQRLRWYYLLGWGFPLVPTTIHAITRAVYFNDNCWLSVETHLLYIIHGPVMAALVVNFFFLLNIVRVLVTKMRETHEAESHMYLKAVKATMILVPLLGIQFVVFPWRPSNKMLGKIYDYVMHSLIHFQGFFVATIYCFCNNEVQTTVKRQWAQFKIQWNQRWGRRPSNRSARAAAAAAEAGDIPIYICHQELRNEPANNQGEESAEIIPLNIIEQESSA

Consider `CC[C@H](C)[C@H](NC(=O)[C@@H]1CCCN1C(=O)CNC(=O)[C@H](Cc1ccccc1)NC(=O)[C@H](CC(N)=O)NC(=O)[C@H](CC(=O)O)NC(=O)[C@H](CO)NC(=O)[C@H](CO)NC(=O)[C@H](Cc1c[nH]cn1)NC(=O)[C@H](Cc1c[nH]cn1)NC(=O)[C@H](CC(C)C)NC(=O)[C@H](Cc1ccccc1)NC(=O)[C@H](CC(N)=O)NC(=O)[C@H](C)NC(=O)[C@H](CC(C)C)NC(=O)[C@H](CCCNC(=N)N)NC(=O)[C@H](CCC(N)=O)NC(=O)[C@@H](NC(=O)[C@H](C)NC(=O)[C@@H]1CSSC[C@H](NC(=O)[C@@H](N)CCCCN)C(=O)N[C@@H](CCCCNC(=O)COCCOCCNC(=O)[C@H](CCC(=O)O)NC(=O)[C@H](CCC(=O)O)NC(=O)CCCCCCCCCCCCCCCCCCC(=O)O)C(=O)N[C@@H]([C@@H](C)O)C(=O)N[C@@H](C)C(=O)N[C@@H]([C@@H](C)O)C(=O)N1)[C@@H](C)O)C(=O)N[C@@H](CC(C)C)C(=O)N1CCC[C@H]1C(=O)N1CCC[C@H]1C(=O)N[C@H](C(=O)N[C@@H](CC(N)=O)C(=O)N[C@H](C(=O)NCC(=O)N[C@@H](CO)C(=O)N[C@@H](CC(N)=O)C(=O)N[C@H](C(=O)N[C@@H](Cc1ccc(O)cc1)C(N)=O)[C@@H](C)O)C(C)C)[C@@H](C)O` [Example 3, N-epsilon3-{2-[2-(2-{(S)-4-Carboxy-2-[(S)-4-carboxy-2-(19-carboxynonadecanoylamino)butyrylamino]butyrylamino}ethoxy)ethoxy]acetyl}-[Lys3,His17,Asp21]-pramlintide] (H-KCK([AEEA-Glu-Glu-C20 diacid])TATCATQRLANFLHHSSDNFGPILPPTNVGSNTY-NH2; disulfide 2-7), for which the “food intake over a period of 48 hours” value in the series on food intake is “effectively reducing food intake”. Moreover, the EC50 in series [1] stood at 0.4 nM.
As for `CC[C@H](C)[C@H](NC(=O)[C@@H]1CCCN1C(=O)CNC(=O)[C@H](Cc1ccccc1)NC(=O)[C@H](CC(N)=O)NC(=O)[C@H](CC(N)=O)NC(=O)[C@H](CO)NC(=O)[C@H](CO)NC(=O)[C@H](Cc1c[nH]cn1)NC(=O)[C@H](Cc1c[nH]cn1)NC(=O)[C@H](CC(C)C)NC(=O)[C@H](Cc1ccccc1)NC(=O)[C@H](CC(N)=O)NC(=O)[C@H](C)NC(=O)[C@H](CC(C)C)NC(=O)[C@H](CCCNC(=N)N)NC(=O)[C@H](CCC(N)=O)NC(=O)[C@@H](NC(=O)[C@H](C)NC(=O)[C@@H]1CSSC[C@H](NC(=O)[C@H](Cc2c[nH]cn2)NC(=O)[C@H](Cc2c[nH]cn2)NC(=O)COCCOCCNC(=O)CC[C@H](NC(=O)CCCCCCCCCCCCCCCCCCC(=O)O)C(=O)O)C(=O)N[C@@H](CC(N)=O)C(=O)N[C@@H]([C@@H](C)O)C(=O)N[C@@H](C)C(=O)N[C@@H]([C@@H](C)O)C(=O)N1)[C@@H](C)O)C(=O)N[C@@H](CC(C)C)C(=O)N1CCC[C@H]1C(=O)N1CCC[C@H]1C(=O)N[C@H](C(=O)N[C@@H](CC(N)=O)C(=O)N[C@H](C(=O)NCC(=O)N[C@@H](CO)C(=O)N[C@@H](CC(N)=O)C(=O)N[C@H](C(=O)N[C@@H](Cc1ccc(O)cc1)C(N)=O)[C@@H](C)O)C(C)C)[C@@H](C)O` [Example 38, N-alpha-[2-(2-{2-[4-(S)-Carboxy-4-(19-carboxynonadecanoylamino)butyrylamino]ethoxy}ethoxy)acetyl]-His-[His1,His17]-pramlintide] ({C20 diacid-γGlu-AEEA}-HHCNTATCATQRLANFLHHSSNNFGPILPPTNVGSNTY-NH2; disulfide 3-8), the “food intake over a period of 48 hours” value in the series on food intake was “effectively reducing food intake”. In series [1], the EC50 is 0.1 nM.
Regarding `CC[C@H](C)[C@H](NC(=O)[C@@H]1CCCN1C(=O)CNC(=O)[C@H](Cc1ccccc1)NC(=O)[C@H](CC(N)=O)NC(=O)[C@H](CC(N)=O)NC(=O)[C@H](CO)NC(=O)[C@H](CO)NC(=O)[C@H](Cc1c[nH]cn1)NC(=O)[C@H](Cc1c[nH]cn1)NC(=O)[C@H](CC(C)C)NC(=O)[C@H](Cc1ccccc1)NC(=O)[C@H](CC(N)=O)NC(=O)[C@H](C)NC(=O)[C@H](CC(C)C)NC(=O)[C@H](CCCNC(=N)N)NC(=O)[C@H](CCC(N)=O)NC(=O)[C@@H](NC(=O)[C@H](C)NC(=O)[C@@H]1CSSC[C@H](NC(=O)[C@H](CCCNC(=N)N)NC(=O)[C@H](Cc2c[nH]cn2)NC(=O)[C@H](Cc2c[nH]cn2)NC(=O)COCCOCCNC(=O)CC[C@H](NC(=O)CCCCCCCCCCCCCCCCCCC(=O)O)C(=O)O)C(=O)N[C@@H](CC(N)=O)C(=O)N[C@@H]([C@@H](C)O)C(=O)N[C@@H](C)C(=O)N[C@@H]([C@@H](C)O)C(=O)N1)[C@@H](C)O)C(=O)N[C@@H](CC(C)C)C(=O)N1CCC[C@H]1C(=O)N1CCC[C@H]1C(=O)N[C@H](C(=O)N[C@@H](CC(N)=O)C(=O)N[C@H](C(=O)NCC(=O)N[C@@H](CO)C(=O)N[C@@H](CC(N)=O)C(=O)N[C@H](C(=O)N[C@@H](Cc1ccc(O)cc1)C(N)=O)[C@@H](C)O)C(C)C)[C@@H](C)O` [Example 56, N-alpha-[2-(2-{2-[4-(S)-Carboxy-4-(19-carboxynonadecanoylamino)butyrylamino]ethoxy}ethoxy)acetyl]-His-His-[Arg1,His17]-pramlintide] ({C20 diacid-γGlu-AEEA}-HHRCNTATCATQRLANFLHHSSNNFGPILPPTNVGSNTY-NH2; disulfide 4-9), in series [2], the half-life (commonly how long it takes for the measured level to halve) is 31 h. For the same compound, the EC50 in series [1] was found to be 0.09 nM.
